{"source": "patent US20030153618A1", "about": "“Treatment and prevention of herpes simplex infections” (priority 1999, published 2003)", "key": {"Herpes simplex II virus": {"tested_on": "Herpes simplex II virus", "assay": "Back titration plaque assay: PFU counts at stated amounts of compound under test and arginine", "format": "cell-based, Herpes simplex II virus (BSC cells)", "description": "The following experiments were conducted by back titration: Herpes simplex II virus from laboratory stocks was used. BSC cells were grown to confluence in Eagles medium with 15% fetal calf serum, 150 units per milliliter of penicillin and 100 micrograms per milliliter of streptomycin. The cultures were inoculated with 500 PFU of HS II. The virons were allowed to absorb for one hour at 25° C. The tissue cultures were then washed three times with sterile PBS to remove excess media and non-absorbed virons. The cells were then incubated at 37° C. until four-plus cytopathic effects were observed. The cells were then disrupted by slow freeze-thaw two times. The suspension was then clarified by slow speed centrifugation at 4° C. The supemanant suspension was then added to confluent BSC cultures. After one hour absorption, the cells were washed with PBS twice. The cells were overlaid in defined reagent (in triplicate) Eagles media in noble agar. The cells were then incubated at 37° C. until the plaques were easily counted, usually 40 t 72 hours. the cells were then washed two times with PBS and then fixed with 10% H2CO and a 2% sodium acetate. The cells were then stained in 0.1% crystal violet in ethanol. In the tables which follow the concentration of the compound to be tested, in micrograms per milliliter, is listed across the top of the table and the concentration of arginine in micrograms per milliliter is listed down the left side of the table, the count of plaque-forming units being shown in the matrix."}, "HSV, Type II": {"tested_on": "HSV, Type II", "assay": "Direct plaque-forming unit (PFU) count in BSC cells in defined media with set lysine (or derivative):arginine ratio", "format": "cell-based", "conditions": "average of three tests", "description": "Absorbed virons were absorbed in susceptible cells in chemically defined media and the number of plaques made were counted. (See Davis, B. D., et al., Microbiology, 2nd Ed., Harper & Row, 1973, Part V, and sources cited therein for procedural details and discussion of the plaque method.)\nThe cell line chosen was green monkey kidney cells (BSC) that have been passed greater than 41 times. […] The virons were added to a confluent lawn of BSC cells and allowed to absorb at 25° C. for one hour. The unabsorbed virons and the media were removed by washing three times in PBS. […] The control media contained a lysine/arginine ratio of 1:1. The plaques were counted when easily readable. Flasks are done in triplicate."}}}
{"molecule": "CC(CN)CC[C@H](N)C(=O)O", "note": "(stereo partly drawn) [5-Methyl lysine]", "values": [{"measurement": "P.F.U. Count", "setting": "Herpes simplex II virus; compound 10 μg/ml, arginine 0 μg/ml", "value": 30}, {"measurement": "P.F.U. Count", "setting": "Herpes simplex II virus; compound 10 μg/ml, arginine 2.5 μg/ml", "value": "2.7 × 10^3"}, {"measurement": "P.F.U. Count", "setting": "Herpes simplex II virus; compound 10 μg/ml, arginine 5.0 μg/ml", "value": "3.7 × 10^4"}, {"measurement": "P.F.U. Count", "setting": "Herpes simplex II virus; compound 10 μg/ml, arginine 7.5 μg/ml", "value": "6.0 × 10^4"}, {"measurement": "P.F.U. Count", "setting": "Herpes simplex II virus; compound 10 μg/ml, arginine 10 μg/ml", "value": "7.9 × 10^4"}, {"measurement": "P.F.U. Count", "setting": "Herpes simplex II virus; compound 10 μg/ml, arginine 15 μg/ml", "value": "2.0 × 10^5"}, {"measurement": "P.F.U. Count", "setting": "Herpes simplex II virus; compound 10 μg/ml, arginine 20 μg/ml", "value": "3.0 × 10^5"}, {"measurement": "P.F.U. Count", "setting": "Herpes simplex II virus; compound 10 μg/ml, arginine 25 μg/ml", "value": "3.0 × 10^5"}, {"measurement": "P.F.U. Count", "setting": "Herpes simplex II virus; compound 25 μg/ml, arginine 0 μg/ml", "value": 0}, {"measurement": "P.F.U. Count", "setting": "Herpes simplex II virus; compound 25 μg/ml, arginine 2.5 μg/ml", "value": 697}, {"measurement": "P.F.U. Count", "setting": "Herpes simplex II virus; compound 25 μg/ml, arginine 5.0 μg/ml", "value": "1.4 × 10^3"}, {"measurement": "P.F.U. Count", "setting": "Herpes simplex II virus; compound 25 μg/ml, arginine 7.5 μg/ml", "value": "4.7 × 10^3"}, {"measurement": "P.F.U. Count", "setting": "Herpes simplex II virus; compound 25 μg/ml, arginine 10 μg/ml", "value": "6.5 × 10^4"}, {"measurement": "P.F.U. Count", "setting": "Herpes simplex II virus; compound 25 μg/ml, arginine 15 μg/ml", "value": "1.7 × 10^4"}, {"measurement": "P.F.U. Count", "setting": "Herpes simplex II virus; compound 25 μg/ml, arginine 20 μg/ml", "value": "3.1 × 10^5"}, {"measurement": "P.F.U. Count", "setting": "Herpes simplex II virus; compound 25 μg/ml, arginine 25 μg/ml", "value": "3.0 × 10^5"}, {"measurement": "P.F.U. Count", "setting": "Herpes simplex II virus; compound 50 μg/ml, arginine 0 μg/ml", "value": 0}, {"measurement": "P.F.U. Count", "setting": "Herpes simplex II virus; compound 50 μg/ml, arginine 2.5 μg/ml", "value": 0}, {"measurement": "P.F.U. Count", "setting": "Herpes simplex II virus; compound 50 μg/ml, arginine 5.0 μg/ml", "value": 190}, {"measurement": "P.F.U. Count", "setting": "Herpes simplex II virus; compound 50 μg/ml, arginine 7.5 μg/ml", "value": 190}, {"measurement": "P.F.U. Count", "setting": "Herpes simplex II virus; compound 50 μg/ml, arginine 10 μg/ml", "value": "1.7 × 10^3"}, {"measurement": "P.F.U. Count", "setting": "Herpes simplex II virus; compound 50 μg/ml, arginine 15 μg/ml", "value": "1.3 × 10^3"}, {"measurement": "P.F.U. Count", "setting": "Herpes simplex II virus; compound 50 μg/ml, arginine 20 μg/ml", "value": "3.0 × 10^5"}, {"measurement": "P.F.U. Count", "setting": "Herpes simplex II virus; compound 50 μg/ml, arginine 25 μg/ml", "value": "3.0 × 10^5"}, {"measurement": "P.F.U. Count", "setting": "Herpes simplex II virus; compound 100 μg/ml, arginine 0 μg/ml", "value": 0}, {"measurement": "P.F.U. Count", "setting": "Herpes simplex II virus; compound 100 μg/ml, arginine 2.5 μg/ml", "value": 0}, {"measurement": "P.F.U. Count", "setting": "Herpes simplex II virus; compound 100 μg/ml, arginine 5.0 μg/ml", "value": 69}, {"measurement": "P.F.U. Count", "setting": "Herpes simplex II virus; compound 100 μg/ml, arginine 7.5 μg/ml", "value": 170}, {"measurement": "P.F.U. Count", "setting": "Herpes simplex II virus; compound 100 μg/ml, arginine 10 μg/ml", "value": 656}, {"measurement": "P.F.U. Count", "setting": "Herpes simplex II virus; compound 100 μg/ml, arginine 15 μg/ml", "value": 710}, {"measurement": "P.F.U. Count", "setting": "Herpes simplex II virus; compound 100 μg/ml, arginine 20 μg/ml", "value": "1.2 × 10^5"}, {"measurement": "P.F.U. Count", "setting": "Herpes simplex II virus; compound 100 μg/ml, arginine 25 μg/ml", "value": "2.4 × 10^5"}, {"measurement": "P.F.U. Count", "setting": "Herpes simplex II virus; compound 200 μg/ml, arginine 0 μg/ml", "value": 0}, {"measurement": "P.F.U. Count", "setting": "Herpes simplex II virus; compound 200 μg/ml, arginine 2.5 μg/ml", "value": 0}, {"measurement": "P.F.U. Count", "setting": "Herpes simplex II virus; compound 200 μg/ml, arginine 5.0 μg/ml", "value": 0}, {"measurement": "P.F.U. Count", "setting": "Herpes simplex II virus; compound 200 μg/ml, arginine 7.5 μg/ml", "value": 0}, {"measurement": "P.F.U. Count", "setting": "Herpes simplex II virus; compound 200 μg/ml, arginine 10 μg/ml", "value": 79}, {"measurement": "P.F.U. Count", "setting": "Herpes simplex II virus; compound 200 μg/ml, arginine 15 μg/ml", "value": 63}, {"measurement": "P.F.U. Count", "setting": "Herpes simplex II virus; compound 200 μg/ml, arginine 20 μg/ml", "value": "2.7 × 10^5"}, {"measurement": "P.F.U. Count", "setting": "Herpes simplex II virus; compound 200 μg/ml, arginine 25 μg/ml", "value": "4.1 × 10^5"}, {"measurement": "P.F.U. Count", "setting": "Herpes simplex II virus; compound 300 μg/ml, arginine 0 μg/ml", "value": 0}, {"measurement": "P.F.U. Count", "setting": "Herpes simplex II virus; compound 300 μg/ml, arginine 2.5 μg/ml", "value": 0}, {"measurement": "P.F.U. Count", "setting": "Herpes simplex II virus; compound 300 μg/ml, arginine 5.0 μg/ml", "value": 0}, {"measurement": "P.F.U. Count", "setting": "Herpes simplex II virus; compound 300 μg/ml, arginine 7.5 μg/ml", "value": 0}, {"measurement": "P.F.U. Count", "setting": "Herpes simplex II virus; compound 300 μg/ml, arginine 10 μg/ml", "value": 0}, {"measurement": "P.F.U. Count", "setting": "Herpes simplex II virus; compound 300 μg/ml, arginine 15 μg/ml", "value": "1.9 × 10^4"}, {"measurement": "P.F.U. Count", "setting": "Herpes simplex II virus; compound 300 μg/ml, arginine 20 μg/ml", "value": "5.6 × 10^4"}, {"measurement": "P.F.U. Count", "setting": "Herpes simplex II virus; compound 300 μg/ml, arginine 25 μg/ml", "value": "6.1 × 10^4"}, {"measurement": "P.F.U. Count", "setting": "Herpes simplex II virus; compound 400 μg/ml, arginine 0 μg/ml", "value": 0}, {"measurement": "P.F.U. Count", "setting": "Herpes simplex II virus; compound 400 μg/ml, arginine 2.5 μg/ml", "value": 0}, {"measurement": "P.F.U. Count", "setting": "Herpes simplex II virus; compound 400 μg/ml, arginine 5.0 μg/ml", "value": 0}, {"measurement": "P.F.U. Count", "setting": "Herpes simplex II virus; compound 400 μg/ml, arginine 7.5 μg/ml", "value": 0}, {"measurement": "P.F.U. Count", "setting": "Herpes simplex II virus; compound 400 μg/ml, arginine 10 μg/ml", "value": 0}, {"measurement": "P.F.U. Count", "setting": "Herpes simplex II virus; compound 400 μg/ml, arginine 15 μg/ml", "value": "1.9 × 10^4"}, {"measurement": "P.F.U. Count", "setting": "Herpes simplex II virus; compound 400 μg/ml, arginine 20 μg/ml", "value": "1.7 × 10^4"}, {"measurement": "P.F.U. Count", "setting": "Herpes simplex II virus; compound 400 μg/ml, arginine 25 μg/ml", "value": "4.6 × 10^4"}, {"measurement": "P.F.U. Count", "setting": "Herpes simplex II virus; compound 500 μg/ml, arginine 0 μg/ml", "value": 0}, {"measurement": "P.F.U. Count", "setting": "Herpes simplex II virus; compound 500 μg/ml, arginine 2.5 μg/ml", "value": 0}, {"measurement": "P.F.U. Count", "setting": "Herpes simplex II virus; compound 500 μg/ml, arginine 5.0 μg/ml", "value": 0}, {"measurement": "P.F.U. Count", "setting": "Herpes simplex II virus; compound 500 μg/ml, arginine 7.5 μg/ml", "value": 0}, {"measurement": "P.F.U. Count", "setting": "Herpes simplex II virus; compound 500 μg/ml, arginine 10 μg/ml", "value": 0}, {"measurement": "P.F.U. Count", "setting": "Herpes simplex II virus; compound 500 μg/ml, arginine 15 μg/ml", "value": "1.0 × 10^4"}, {"measurement": "P.F.U. Count", "setting": "Herpes simplex II virus; compound 500 μg/ml, arginine 20 μg/ml", "value": "2.3 × 10^3"}, {"measurement": "P.F.U. Count", "setting": "Herpes simplex II virus; compound 500 μg/ml, arginine 25 μg/ml", "value": "4.0 × 10^4"}, {"measurement": "P.F.U. Count", "setting": "HSV, Type II; Compound Ratio to Arginine 10:1", "value": 79}, {"measurement": "P.F.U. Count", "setting": "HSV, Type II; Compound Ratio to Arginine 100:1", "value": 43}]}
